Where two headings read alike, the source gives them in different places.
Assays:
platelet function = platelet function (platelet aggregation and activation); type: cell-based, human
human c-Mpl-Ba/F3 cells = assay: proliferation of cultured human c-Mpl-Ba/F3 cells; type: cell-based; conditions: concentration-dependent; maximum effect similar to that of rhTPO
platelet count = assay: Example 2 multi-dose study: pharmacodynamics (platelet count); type: in vivo, human
Method: (§1) A double-blind, placebo-controlled, dose rising study was performed in healthy male and female volunteers. Each dose cohort received either placebo or active treatment as an oral suspension once daily for fourteen (14) consecutive days. The dose of study drug was prepared and administered as described in Example 1 above. The doses administered in this multiple dose study were based on the safety and tolerability assessment of the doses administered in Example 1.
(§2) Based on the results of Example 1, the starting dose was 3 mg. Based on the safety and tolerability results from Example 1, the dose was scheduled to be escalated to 10, 20, 50 and 100 mg per day for 14 consecutive days. Successive dose cohorts were not treated until the previous cohort completed 14 days of treatment and the safety follow-up visit on Day 21.

[1] = in-vitro plasma protein binding, mice; type: in vitro ADME; conditions: mouse, 0.05 to 50 μg/mL
Method: (§3) The in-vitro plasma protein binding of the drug of Formula I was independent of concentration over the concentration range of 0.05 to 50 μg/mL and was 87.2-89.1% in mice; 87.6-89.2% in rats; 88.3-92.0% in rabbits; […] in dogs; 97.0-97.6% in monkeys; and 96.3-96.6% in humans.

[2] = system: human cord blood (CB) CD34^+ cells; assay: differentiation of human cord blood CD34+ cells to megakaryocytes; type: cell-based; conditions: concentration-dependent; maximum effect similar to that of rhTPO
[3] = 4-week repeat dose toxicity in cynomolgus monkey; type: in vivo
[4] = QT interval in cynomolgus monkeys; type: in vivo; conditions: 100 and 1000 mg/kg, appears related to decreased heart rate from acclimation, not drug related
2C19 = 2C19 (Homo sapiens, UniProt P33261); assay: inhibition of human liver cytochrome P450 2C19; type: in vitro ADME; conditions: human liver cytochrome P450 isoenzyme
2C9 = 2C9 (Homo sapiens, UniProt P11712); assay: inhibition of human liver cytochrome P450 2C9; type: in vitro ADME; conditions: human liver cytochrome P450 isoenzyme
[5] = in-vitro plasma protein binding, monkeys; type: in vitro ADME; conditions: monkey, 0.05 to 50 μg/mL
Method: as §3

2D6 = 2D6 (Homo sapiens, UniProt P10635); assay: inhibition of human liver cytochrome P450 2D6; type: in vitro ADME; conditions: human liver cytochrome P450 isoenzyme
[6] = in-vitro plasma protein binding, rabbits; type: in vitro ADME; conditions: rabbit, 0.05 to 50 μg/mL
Method: as §3

[7] = 4-week repeat dose toxicity in the dog; type: in vivo
[8] = Example 2 multi-dose study: pharmacokinetics; type: in vivo, human; conditions: for Tmax at 14 days: read-out: mean time to maximum plasma concentration (Tmax); for Cmax at 14 days: read-out: mean maximum plasma concentration (Cmax)
Method: as §1, §2

[9] = pharmacokinetics after intravenous and oral administration in dogs; type: in vivo; conditions: dog, plasma
Description: After a single intravenous administration of the drug of Formula I as the monomaleate salt to mice and dogs, plasma concentrations of Formula I decreased in a biphasic manner.

[10] = cardiovascular and respiratory system effects in the conscious dog; type: in vivo; conditions: up to a dose of 300 mg/kg
[11] = system: human hematopoietic progenitor cells; assay: differentiation of hematopoietic progenitor cells other than megakaryocytic lineage; type: cell-based
liver microsomal enzymes = assay: metabolism by mouse liver microsomal enzymes; type: in vitro ADME
[12] = both sexes, human, in vivo, oral, 3 mg once daily, Study Day 14, mean
[13] = both sexes, human, in vivo, oral, 10 mg once daily, Study Day 14, mean
[14] = both sexes, human, in vivo, oral, 20 mg once daily, Study Day 14, simulated data at steady-state

Chain of 2C19 (P33261 whole entry): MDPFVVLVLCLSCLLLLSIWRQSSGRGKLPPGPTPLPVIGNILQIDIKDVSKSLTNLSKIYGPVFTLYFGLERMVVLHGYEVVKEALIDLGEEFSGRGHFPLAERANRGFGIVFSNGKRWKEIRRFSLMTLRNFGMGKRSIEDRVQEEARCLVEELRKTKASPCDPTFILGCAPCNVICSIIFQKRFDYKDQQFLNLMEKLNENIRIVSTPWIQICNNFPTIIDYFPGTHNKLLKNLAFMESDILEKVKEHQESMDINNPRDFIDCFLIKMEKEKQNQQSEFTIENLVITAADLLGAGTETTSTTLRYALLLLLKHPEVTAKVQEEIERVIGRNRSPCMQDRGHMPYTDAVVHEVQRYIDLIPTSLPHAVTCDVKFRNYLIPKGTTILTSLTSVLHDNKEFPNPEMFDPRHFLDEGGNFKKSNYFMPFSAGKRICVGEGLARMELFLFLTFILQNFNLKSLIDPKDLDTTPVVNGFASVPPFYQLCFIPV
Chain of 2D6 (P10635 whole entry): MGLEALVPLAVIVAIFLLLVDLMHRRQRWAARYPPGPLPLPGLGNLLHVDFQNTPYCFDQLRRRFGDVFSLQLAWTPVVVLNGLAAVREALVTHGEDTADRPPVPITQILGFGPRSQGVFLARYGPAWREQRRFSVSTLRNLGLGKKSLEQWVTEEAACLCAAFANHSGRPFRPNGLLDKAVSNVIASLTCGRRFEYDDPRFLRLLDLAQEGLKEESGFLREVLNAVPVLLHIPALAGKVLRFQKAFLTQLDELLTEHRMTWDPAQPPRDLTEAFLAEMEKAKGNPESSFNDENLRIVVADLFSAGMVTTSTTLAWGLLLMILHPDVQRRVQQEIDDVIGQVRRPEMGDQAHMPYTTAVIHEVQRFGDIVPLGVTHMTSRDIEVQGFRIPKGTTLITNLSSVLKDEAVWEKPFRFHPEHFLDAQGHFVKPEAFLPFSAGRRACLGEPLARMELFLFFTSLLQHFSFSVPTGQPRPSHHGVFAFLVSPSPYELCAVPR
Chain of 2C9 (P11712 whole entry): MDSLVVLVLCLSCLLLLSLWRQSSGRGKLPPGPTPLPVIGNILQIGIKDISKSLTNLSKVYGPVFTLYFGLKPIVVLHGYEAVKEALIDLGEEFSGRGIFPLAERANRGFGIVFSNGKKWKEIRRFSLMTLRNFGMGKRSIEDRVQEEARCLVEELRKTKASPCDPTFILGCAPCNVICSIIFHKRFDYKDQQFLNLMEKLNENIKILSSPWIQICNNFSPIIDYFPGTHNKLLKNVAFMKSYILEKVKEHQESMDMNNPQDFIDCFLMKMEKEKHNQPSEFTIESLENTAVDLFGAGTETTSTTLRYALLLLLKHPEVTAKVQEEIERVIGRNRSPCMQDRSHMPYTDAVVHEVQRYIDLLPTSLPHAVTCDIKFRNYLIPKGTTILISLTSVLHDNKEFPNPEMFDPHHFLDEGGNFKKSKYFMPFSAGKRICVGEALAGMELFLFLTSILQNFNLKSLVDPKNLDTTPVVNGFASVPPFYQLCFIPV

fraction unbound [1]: 0.109 to 0.128
inhibition of CYP2C19 (2C19): did not inhibit
inhibition of CYP2C9 (2C9): did not inhibit
fraction unbound [5]: 0.024 to 0.03
inhibition of CYP2D6 (2D6): did not inhibit
fraction unbound [6]: 0.08 to 0.117
AUC(0-t) ([8]; both sexes, human, in vivo, oral, 3 mg, 3 mg once daily, Study Day 1, mean, read-out: AUC0-last): 235 ng·h/mL
Tmax ([8]; both sexes, human, in vivo, oral, 3 mg, 3 mg once daily, Study Day 1, median): 6 h
AUC(0-t) ([8]; both sexes, human, in vivo, oral, 3 mg, 3 mg once daily, Study Day 14, mean, read-out: AUC0-last): 659 ng·h/mL
Tmax ([8]; both sexes, human, in vivo, oral, 3 mg, 3 mg once daily, Study Day 14, median): 6 h
AUC(0-t) ([8]; both sexes, human, in vivo, oral, 10 mg, 10 mg once daily, Study Day 1, mean, read-out: AUC0-last): 841 ng·h/mL
Tmax ([8]; both sexes, human, in vivo, oral, 10 mg, 10 mg once daily, Study Day 1, median): 6 h
AUC(0-t) ([8]; both sexes, human, in vivo, oral, 10 mg, 10 mg once daily, Study Day 14, mean, read-out: AUC0-last): 2360 ng·h/mL
Tmax ([8]; both sexes, human, in vivo, oral, 10 mg, 10 mg once daily, Study Day 14, median): 4.5 h
AUC(0-t) ([8]; both sexes, human, in vivo, oral, 20 mg, 20 mg once daily, Study Day 1, mean, read-out: AUC0-last): 1960 ng·h/mL
Tmax ([8]; both sexes, human, in vivo, oral, 20 mg, 20 mg once daily, Study Day 1, median): 6 h
Tmax ([8]; both sexes, human, in vivo, oral, 20 mg, 20 mg once daily, Study Day 14, median, simulated data at steady-state): 6 h
AUC(0-t) ([8]; both sexes, human, in vivo, oral, 20 mg, 20 mg once daily, Study Day 14, simulated data at steady-state, read-out: AUC0-last): 3610 ng·h/mL
AUC(0-inf) [8, 12]: 804 ng·h/mL
half-life [8, 12]: 1090 min
Cmax ([8]; both sexes, human, in vivo, oral, 3 mg once daily, Study Day 14, mean, read-out: Cmax, ss): 25.6 ng/mL
AUC(0-inf) [8, 13]: 2870 ng·h/mL
half-life [8, 13]: 1090 min
Cmax ([8]; both sexes, human, in vivo, oral, 10 mg once daily, Study Day 14, mean, read-out: Cmax, ss): 94.1 ng/mL
AUC(0-inf) [8, 14]: 7150 ng·h/mL
half-life [8, 14]: 1250 min
Cmax ([8]; both sexes, human, in vivo, oral, 20 mg once daily, Study Day 14, simulated data at steady-state, read-out: Cmax, ss): 205 ng/mL
half-life at 14 days ([8]; both sexes, human, in vivo, oral, multi-dose study, independent of dose): 1080 to 1260 min
Cmax ([8]; both sexes, human, in vivo, 3 mg once daily oral suspension, Study Day 1, mean, read-out: Cmax): 14.8 ng/mL
Cmax ([8]; both sexes, human, in vivo, 10 mg once daily oral suspension, Study Day 1, mean, read-out: Cmax): 53.2 ng/mL
Cmax ([8]; both sexes, human, in vivo, 20 mg once daily oral suspension, Study Day 1, mean, read-out: Cmax): 121 ng/mL
AUC(0-t) ([8]; both sexes, human, plasma, oral, 3 mg, 3 mg dose administered over about fourteen (14) days, human, read-out: mean AUC0-last): ~659 ng·h/mL
Tmax at 14 days ([8]; both sexes, human, plasma, oral, 3 mg, 3 mg dose administered over about fourteen (14) days, human): ~6 h
AUC(0-t) ([8]; both sexes, human, plasma, oral, 10 mg, 10 mg dose administered over about fourteen (14) days, human, read-out: mean AUC0-last): ~2360 ng·h/mL
Tmax at 14 days ([8]; both sexes, human, plasma, oral, 10 mg, 10 mg dose administered over about fourteen (14) days, human): ~4.4 h
AUC(0-t) ([8]; both sexes, human, plasma, oral, 20 mg, 20 mg dose administered over about fourteen (14) days, human, Table 3: simulated data at steady-state, read-out: mean AUC0-last): ~3610 ng·h/mL
Tmax at 14 days ([8]; both sexes, human, plasma, oral, 20 mg, 20 mg dose administered over about fourteen (14) days, human, Table 3: simulated data at steady-state): ~5.5 h
Cmax at 14 days ([8]; both sexes, plasma, oral, 3 mg dose administered over about fourteen (14) days, human): ~25 ng/mL
Cmax at 14 days ([8]; both sexes, plasma, oral, 10 mg dose administered over about fourteen (14) days, human): ~94 ng/mL
Cmax at 14 days ([8]; both sexes, plasma, oral, 20 mg dose administered over about fourteen (14) days, human, Table 3: simulated data at steady-state): ~204 ng/mL
half-life ([9]; dogs, single intravenous administration as the monomaleate salt, read-out: terminal elimination half-life (t1/2) (converted)): 162 min
bioavailability ([9]; oral administration, read-out: absolute bioavailability): 52%
metabolism by liver microsomal enzymes (liver microsomal enzymes): does not appear to be metabolized
SMILES: O=C(Nc1nc(-c2cc(Cl)cs2)c(N2CCN(C3CCCCC3)CC2)s1)c1cnc(N2CCC(C(=O)O)CC2)c(Cl)c1 [Formula I, 1-(3-chloro-5-{[4-(4-chlorothiophen-2-yl)-5-(4-cyclohexylpiperazin-1-yl)thiazol-2-yl]carbamoyl}pyridin-2-yl)piperadine-4-carboxylic acid]
platelet function as measured by platelet aggregation and activation (platelet function): does not appear to effect platelet function
proliferation of cultured human c-Mpl-Ba/F3 cells (human c-Mpl-Ba/F3 cells): stimulates the proliferation
dose-concentration-response relationship for changes in platelet count (platelet count; 3 mg to 20 mg dose range, repeat dosing): linear increases in platelet counts over baseline
day by which the revised PD limit (>500,000 platelets) occurred in all six (6) subjects (platelet count; 20 mg cohort): 10 to 11 days
dose cohort in which the original PD limit (five subjects with >50% increase in platelet count) was reached (platelet count; once daily dosing): 10 mg
platelet counts following repeat administration (platelet count; repeat administration of 10 mg and 20 mg): Statistically significant increases in platelet counts
differentiation of human cord blood CD34+ cells to human megakaryocytes [2]: promotes the differentiation
changes in the gastric mucosa ([3]; cynomolgus monkey, repeat dosing 4 weeks, 3, 10, 100, 1000 mg/kg/day): necrosis of the surface epithelium and atrophy of the fundic glands and edema and inflammatory infiltrates in the lamia propria of the fundus
muscle degeneration/necrosis in femoral, lower thigh or multifides muscles ([3]; cynomolgus monkey, repeat dosing 4 weeks, lesions partly present before dosing and in a control): one or more monkeys in all dose groups
CK and aldolase levels ([3]; cynomolgus monkey, elevated levels also present prior to the first dose): Elevated levels of CK and aldolase
reversibility of gastric mucosa changes ([3]; high dose monkeys, on drug withdrawal): not entirely
QT interval [4]: prolongation of QT interval was reported
muscle lesions ([7]; any dose): No muscle lesions were observed
renal findings at the end of the recovery period ([7]; high dose animals (100, 300 mg/kg/day), all other renal lesions resolved): regeneration of renal tubular epithelial persisted in the majority of the high dose animals
microscopic changes in the cortex of the kidney ([7]; monomaleate salt, 10, 30, 100, 300 mg/kg/day for 4 weeks): epithelial cell regeneration of proximal tubules and interstitial subacute inflammation
dose proportionality of Cmax and AUC ([8]; following single and repeat administration, 3 mg to 20 mg): increased proportionally with respect to dose
cardiovascular or respiratory system effects [10]: No cardiovascular or respiratory system effects were observed
differentiation of human hematopoietic progenitor cells other than those of megakaryocytic lineage [11]: did not promote the differentiation

Source: US20110224226A1, “COMPOSITIONS AND METHODS FOR INCREASING BLOOD PLATELET LEVELS IN HUMANS” (AKARX, Inc., priority 2006, published 2011)
